Source: ChEMBL document CHEMBL3297697, “Property- and structure-guided discovery of a tetrahydroindazole series of interleukin-2 inducible T-cell kinase inhibitors” (J Med Chem, 2014)
Converted amounts (≈) assume the structure as drawn.

Legend:
[1] = Plasma protein binding in human; format: ADME, cell-free; settings: read-out: PPB (converted)
[2] = Cmax in BALB/c mouse at 50 mg/kg, po by LC-MS/MS analysis; format: ADME, organism-based; design: dose 50 mg/kg, route oral; settings: in vivo
[3] = AUC in BALB/c mouse at 1 mg/kg, iv by LC-MS/MS analysis; format: ADME, organism-based; design: dose 1 mg/kg, route intravenous; settings: plasma
[4] = AUC in BALB/c mouse at 50 mg/kg, po by LC-MS/MS analysis; format: ADME, organism-based; design: dose 50 mg/kg, route oral; settings: plasma
[5] = Clearance in BALB/c mouse at 1 mg/kg, iv by LC-MS/MS analysis; format: ADME, organism-based; design: dose 1 mg/kg, route intravenous; settings: in vivo
[6] = Half life in BALB/c mouse at 1 mg/kg, iv by LC-MS/MS analysis; format: ADME, organism-based; design: dose 1 mg/kg, route intravenous; settings: in vivo
[7] = Volume of distribution at steady state in BALB/c mouse at 1 mg/kg, iv by LC-MS/MS analysis; format: ADME, organism-based; design: dose 1 mg/kg, route intravenous; settings: in vivo, read-out: Vdss
[8] = Oral bioavailability in BALB/c mouse at 50 mg/kg by LC-MS/MS analysis; format: ADME, organism-based; settings: in vivo
[9] = Cmax in Sprague-Dawley rat at 5 mg/kg, po by LC-MS/MS analysis; format: ADME, organism-based; design: dose 5 mg/kg, route oral; settings: in vivo
[10] = AUC in Sprague-Dawley rat at 1 mg/kg, iv by LC-MS/MS analysis; format: ADME, organism-based; design: dose 1 mg/kg, route intravenous; settings: plasma
[11] = AUC in Sprague-Dawley rat at 5 mg/kg, po by LC-MS/MS analysis; format: ADME, organism-based; design: dose 5 mg/kg, route oral; settings: plasma
[12] = Clearance in Sprague-Dawley rat at 1 mg/kg, iv by LC-MS/MS analysis; format: ADME, organism-based; design: dose 1 mg/kg, route intravenous; settings: in vivo
[13] = Half life in Sprague-Dawley rat at 1 mg/kg, iv by LC-MS/MS analysis; format: ADME, organism-based; design: dose 1 mg/kg, route intravenous; settings: in vivo
[14] = Volume of distribution at steady state in Sprague-Dawley rat at 1 mg/kg, iv by LC-MS/MS analysis; format: ADME, organism-based; design: dose 1 mg/kg, route intravenous; settings: in vivo, read-out: Vdss
[15] = Oral bioavailability in Sprague-Dawley rat at 5 mg/kg by LC-MS/MS analysis; format: ADME, organism-based; settings: in vivo
[16] = Cmax in beagle dog at 5 mg/kg, po by LC-MS/MS analysis; format: ADME, organism-based, Canis lupus familiaris; design: dose 5 mg/kg, route oral; settings: in vivo
[17] = AUC in beagle dog at 1 mg/kg, iv by LC-MS/MS analysis; format: ADME, organism-based, Canis lupus familiaris; design: dose 1 mg/kg, route intravenous; settings: plasma
[18] = AUC in beagle dog at 5 mg/kg, po by LC-MS/MS analysis; format: ADME, organism-based, Canis lupus familiaris; design: dose 5 mg/kg, route oral; settings: plasma
[19] = Clearance in beagle dog at 1 mg/kg, iv by LC-MS/MS analysis; format: ADME, organism-based, Canis lupus familiaris; design: dose 1 mg/kg, route intravenous; settings: in vivo
[20] = Half life in beagle dog at 1 mg/kg, iv by LC-MS/MS analysis; format: ADME, organism-based, Canis lupus familiaris; design: dose 1 mg/kg, route intravenous; settings: in vivo
[21] = Volume of distribution at steady state in beagle dog at 1 mg/kg, iv by LC-MS/MS analysis; format: ADME, organism-based, Canis lupus familiaris; design: dose 1 mg/kg, route intravenous; settings: in vivo
[22] = Oral bioavailability in beagle dog at 5 mg/kg by LC-MS/MS analysis; format: ADME, organism-based, Canis lupus familiaris; settings: in vivo
[23] = Apparent permeability across MDCK cells; format: ADME, cell-based, Canis lupus familiaris; settings: dog
[24] = target: Dual specificity protein kinase CLK2 (Homo sapiens) (UniProt P49760); assay: Inhibition of CLK2 (unknown origin) at 0.1 uM
Sequence of Dual specificity protein kinase CLK2 (Homo sapiens) (P49760 whole entry, looked up): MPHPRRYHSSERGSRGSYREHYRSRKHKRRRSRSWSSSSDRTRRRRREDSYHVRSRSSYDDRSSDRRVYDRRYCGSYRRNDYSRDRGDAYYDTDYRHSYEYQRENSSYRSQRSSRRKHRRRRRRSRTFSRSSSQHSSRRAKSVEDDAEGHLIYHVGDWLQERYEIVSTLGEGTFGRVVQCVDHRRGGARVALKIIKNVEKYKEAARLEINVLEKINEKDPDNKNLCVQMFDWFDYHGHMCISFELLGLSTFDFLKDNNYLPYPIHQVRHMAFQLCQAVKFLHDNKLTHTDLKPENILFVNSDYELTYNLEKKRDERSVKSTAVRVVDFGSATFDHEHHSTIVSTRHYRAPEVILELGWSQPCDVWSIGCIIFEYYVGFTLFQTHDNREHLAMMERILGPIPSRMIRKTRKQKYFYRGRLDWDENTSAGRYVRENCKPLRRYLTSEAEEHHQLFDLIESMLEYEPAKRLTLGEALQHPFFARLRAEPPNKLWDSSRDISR

[25] = target: Receptor-type tyrosine-protein kinase FLT3 (Homo sapiens) (UniProt P36888); assay: Inhibition of FLT3 (unknown origin) at 0.1 uM
[26] = tested on: T1, Receptor-type tyrosine-protein kinase FLT3 (Homo sapiens), P36888 [D835Y]; assay: Inhibition of FLT3 D835Y mutant (unknown origin) at 0.1 uM
T1 sequence (whole entry): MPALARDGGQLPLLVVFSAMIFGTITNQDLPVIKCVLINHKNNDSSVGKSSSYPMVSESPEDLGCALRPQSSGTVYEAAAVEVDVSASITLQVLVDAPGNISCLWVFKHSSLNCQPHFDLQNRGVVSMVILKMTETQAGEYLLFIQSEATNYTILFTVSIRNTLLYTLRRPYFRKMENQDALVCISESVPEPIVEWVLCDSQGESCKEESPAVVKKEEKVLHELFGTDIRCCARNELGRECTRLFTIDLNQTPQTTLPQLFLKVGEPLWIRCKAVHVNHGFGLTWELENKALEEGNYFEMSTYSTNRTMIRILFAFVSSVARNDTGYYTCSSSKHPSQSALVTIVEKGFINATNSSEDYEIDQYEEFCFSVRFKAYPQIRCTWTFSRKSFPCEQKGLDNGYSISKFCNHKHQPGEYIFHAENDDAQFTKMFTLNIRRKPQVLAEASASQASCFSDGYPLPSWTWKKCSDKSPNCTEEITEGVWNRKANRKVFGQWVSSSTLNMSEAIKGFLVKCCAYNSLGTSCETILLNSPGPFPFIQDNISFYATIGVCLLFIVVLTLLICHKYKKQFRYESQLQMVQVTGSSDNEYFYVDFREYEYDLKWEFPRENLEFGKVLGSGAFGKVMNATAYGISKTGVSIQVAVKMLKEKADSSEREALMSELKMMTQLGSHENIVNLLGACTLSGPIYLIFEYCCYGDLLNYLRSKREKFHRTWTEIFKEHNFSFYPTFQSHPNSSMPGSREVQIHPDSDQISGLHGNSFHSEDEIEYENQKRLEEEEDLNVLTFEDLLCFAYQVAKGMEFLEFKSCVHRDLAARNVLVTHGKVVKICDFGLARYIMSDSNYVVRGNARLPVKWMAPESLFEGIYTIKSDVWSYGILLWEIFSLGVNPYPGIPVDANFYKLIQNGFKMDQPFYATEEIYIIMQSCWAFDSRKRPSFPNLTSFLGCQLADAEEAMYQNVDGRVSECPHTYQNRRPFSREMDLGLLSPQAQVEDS

[27] = target: High affinity nerve growth factor receptor (Homo sapiens) (UniProt P04629); assay: Inhibition of TRKA (unknown origin) at 0.1 uM
Sequence of High affinity nerve growth factor receptor (Homo sapiens) (P04629 33-796 limits assumed): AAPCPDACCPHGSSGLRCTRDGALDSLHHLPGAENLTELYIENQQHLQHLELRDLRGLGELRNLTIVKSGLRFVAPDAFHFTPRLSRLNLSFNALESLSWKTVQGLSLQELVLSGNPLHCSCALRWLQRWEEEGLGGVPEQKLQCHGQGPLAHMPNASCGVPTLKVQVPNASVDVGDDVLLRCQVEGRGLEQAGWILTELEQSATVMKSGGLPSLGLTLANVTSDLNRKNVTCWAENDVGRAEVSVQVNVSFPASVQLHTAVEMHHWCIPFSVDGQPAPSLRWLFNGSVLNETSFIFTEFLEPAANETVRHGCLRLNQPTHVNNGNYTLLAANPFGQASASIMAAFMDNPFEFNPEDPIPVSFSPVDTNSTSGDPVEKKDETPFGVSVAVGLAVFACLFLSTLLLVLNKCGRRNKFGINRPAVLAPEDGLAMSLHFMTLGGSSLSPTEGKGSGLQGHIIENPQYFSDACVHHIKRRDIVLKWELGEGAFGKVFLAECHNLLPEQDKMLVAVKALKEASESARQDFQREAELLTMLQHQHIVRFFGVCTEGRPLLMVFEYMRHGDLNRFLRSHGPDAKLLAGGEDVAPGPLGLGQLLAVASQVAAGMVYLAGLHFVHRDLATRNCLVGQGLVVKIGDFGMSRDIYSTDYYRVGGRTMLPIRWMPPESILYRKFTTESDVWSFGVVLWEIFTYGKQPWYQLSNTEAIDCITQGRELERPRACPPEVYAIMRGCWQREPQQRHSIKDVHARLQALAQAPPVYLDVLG

[28] = target: BDNF/NT-3 growth factors receptor (Homo sapiens) (UniProt Q16620); assay: Inhibition of TRKB (unknown origin) at 0.1 uM
Sequence of BDNF/NT-3 growth factors receptor (Homo sapiens) (Q16620 32-822 limits assumed): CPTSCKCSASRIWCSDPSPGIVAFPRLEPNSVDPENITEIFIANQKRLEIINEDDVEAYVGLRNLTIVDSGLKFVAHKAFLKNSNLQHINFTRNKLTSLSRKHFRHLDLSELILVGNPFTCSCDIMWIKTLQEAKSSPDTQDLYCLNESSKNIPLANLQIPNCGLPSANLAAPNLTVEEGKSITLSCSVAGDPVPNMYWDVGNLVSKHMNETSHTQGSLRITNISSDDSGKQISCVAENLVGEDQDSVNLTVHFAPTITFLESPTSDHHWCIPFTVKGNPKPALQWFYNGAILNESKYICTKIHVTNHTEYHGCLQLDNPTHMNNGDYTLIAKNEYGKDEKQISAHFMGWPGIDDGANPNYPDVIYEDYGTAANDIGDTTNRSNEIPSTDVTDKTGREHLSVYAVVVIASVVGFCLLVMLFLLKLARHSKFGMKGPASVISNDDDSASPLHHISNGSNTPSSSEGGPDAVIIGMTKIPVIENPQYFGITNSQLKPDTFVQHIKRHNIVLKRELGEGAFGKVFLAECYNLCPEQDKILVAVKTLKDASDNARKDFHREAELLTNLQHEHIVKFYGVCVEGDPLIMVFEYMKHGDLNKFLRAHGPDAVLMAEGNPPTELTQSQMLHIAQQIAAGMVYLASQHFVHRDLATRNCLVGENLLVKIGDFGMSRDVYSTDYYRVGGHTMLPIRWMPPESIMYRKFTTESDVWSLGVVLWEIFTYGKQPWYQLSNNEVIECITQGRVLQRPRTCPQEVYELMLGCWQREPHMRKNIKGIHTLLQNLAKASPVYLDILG

[29] = target: NT-3 growth factor receptor (Homo sapiens) (UniProt Q16288); assay: Inhibition of TRKC (unknown origin) at 0.1 uM
Sequence of NT-3 growth factor receptor (Homo sapiens) (Q16288 32-839 limits assumed): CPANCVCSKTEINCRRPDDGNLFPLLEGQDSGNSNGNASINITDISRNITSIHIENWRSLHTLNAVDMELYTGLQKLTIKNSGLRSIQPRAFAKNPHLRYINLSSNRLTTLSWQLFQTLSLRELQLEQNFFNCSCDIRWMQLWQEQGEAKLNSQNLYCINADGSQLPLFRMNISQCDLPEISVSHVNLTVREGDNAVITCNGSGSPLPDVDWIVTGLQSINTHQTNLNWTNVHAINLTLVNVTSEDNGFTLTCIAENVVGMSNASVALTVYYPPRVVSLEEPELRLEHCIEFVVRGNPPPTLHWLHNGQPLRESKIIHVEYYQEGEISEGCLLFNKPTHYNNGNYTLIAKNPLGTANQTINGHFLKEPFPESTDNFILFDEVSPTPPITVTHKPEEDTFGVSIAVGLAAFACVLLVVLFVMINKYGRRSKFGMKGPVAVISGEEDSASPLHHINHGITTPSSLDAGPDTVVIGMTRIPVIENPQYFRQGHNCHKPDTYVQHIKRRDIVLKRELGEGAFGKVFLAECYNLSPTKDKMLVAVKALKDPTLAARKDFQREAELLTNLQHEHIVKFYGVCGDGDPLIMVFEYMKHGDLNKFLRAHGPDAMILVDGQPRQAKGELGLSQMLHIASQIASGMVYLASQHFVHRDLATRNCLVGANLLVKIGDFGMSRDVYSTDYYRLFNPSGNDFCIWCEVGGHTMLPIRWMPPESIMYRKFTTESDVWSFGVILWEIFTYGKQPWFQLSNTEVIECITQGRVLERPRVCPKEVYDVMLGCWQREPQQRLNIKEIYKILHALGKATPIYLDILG

physchem [30] = settings: PBS buffer, pH 7.4, Kinetic_solubility
physchem [31] = settings: 1-octanol/phosphate buffer, pH 7.4, logD

## CN(C)CC[C@@H](c1ccccc1)n1cc(NC(=O)c2n[nH]c3c2CCC(C)(C)C3)cn1
[1]
  fraction unbound: 0.07
[2]
  Cmax: 3800 nM
[3]
  AUC: 1.5 µM·h
[4]
  AUC: 27 µM·h
[5]
  clearance: 40 mL/min/kg
[6]
  half-life: 2.9 h
[7]
  Vd: 10 L/kg
[8]
  bioavailability: 36%
[9]
  Cmax: 200 nM
[10]
  AUC: 0.6 µM·h
[11]
  AUC: 1.1 µM·h
[12]
  clearance: 70 mL/min/kg
[13]
  half-life: 3 h
[14]
  Vd: 14 L/kg
[15]
  bioavailability: 40%
[16]
  Cmax: 900 nM
[17]
  AUC: 1.9 µM·h
[18]
  AUC: 10 µM·h
[19]
  clearance: 21 mL/min/kg
[20]
  half-life: 5.4 h
[21]
  Vd: 6.7 L/kg
[22]
  bioavailability: 100%
[23]
  Papp: 4.6 ×10⁻⁶ cm/s
[24]
  inhibition: 93%
[25]
  inhibition: 76%
[26]
  inhibition: 75%
[27]
  inhibition: 80%
[28]
  inhibition: 91%
[29]
  inhibition: 88%
Physchem [30]
  solubility kinetic at 24 h, 10000 µM: 68 µM (≈ 28.6 µg/mL)
Physchem [31]
  logD at 20 min, 10000 µM: 2
